Patent US12252481B2, “Anti-viral compounds” (Aligos Therapeutics, Inc., priority 2021, dated 2025)

Assays:
human cathepsin L = molecular target: T1, human cathepsin L (Homo sapiens, UniProt P07711); test: Cathepsin L assay (Z-FR-AMC fluorescence); type: biochemical; conditions: 10 pM human cathepsin L, 30 mins preincubation, Z-FR-AMC 2 μM
T1 construct: purchased R&D Systems
Procedure: For the cathepsin L assay, 10 pM of human cathepsin L (R&D Systems; Minneapolis, MN) was preincubated for 30 mins with test compounds. Reactions were initiated by the addition of a peptide substrate Z—FR-AMC (final concentration 2 μM, Anaspec; Fremont, CA). Fluorescence was measured at 2-minute intervals for 30 mins using a 355/460 excitation/emission filter module on an Envision plate reader (Perkin Elmer; Waltham, MA). The IC50 values were calculated for each assay by fitting the curves using a four-parameter equation in GraphPad Prism.

SARS-Cov-2 3CLpro = molecular target: T2, SARS-Cov-2 3CLpro (Severe acute respiratory syndrome coronavirus 2, UniProt P0DTD1); test: biochemical; conditions: 3CLpro, 30 mins preincubation, SAMDI-MS; read-out: SARS-Cov-2 IC50 (class)
T2 construct: 3CLpro and HRV3C was added using a Multidrop Combi

HRV3C = molecular target: T3, HRV3C (Human rhinovirus 14, UniProt P03303); test: biochemical; set-up: species or system HRV; conditions: HRV3C, 30 mins preincubation, SAMDI-MS; read-out: HRV IC50 (bound)
T3 construct: 3CLpro and HRV3C was added using a Multidrop Combi
T3 sequence (P03303 1538-1719): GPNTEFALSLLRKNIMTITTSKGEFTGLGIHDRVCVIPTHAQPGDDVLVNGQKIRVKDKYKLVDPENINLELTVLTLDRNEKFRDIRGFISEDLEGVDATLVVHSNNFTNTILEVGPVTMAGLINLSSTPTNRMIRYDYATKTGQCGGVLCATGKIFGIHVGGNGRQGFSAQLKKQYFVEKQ

[1] = system: B.1.1.7 lineage SARS-CoV-2; test: microbe, parasite or virus in culture; type: cell-based; conditions: Severe acute respiratory syndrome coronavirus 2, 96 h; read-out: A549-dual_ACE2_TMPRSS2 (EC50)
[2] = system: human beta-coronavirus OC43; test: OC43 coronavirus antiviral assay in HeLa cells (cytopathic effect, cell-titer-glo); type: cell-based; conditions: Betacoronavirus 1, OC43, HeLa, 144 h, 6 days at 33° C., read-out: EC50 (class)

T1 sequence (P07711 114-333): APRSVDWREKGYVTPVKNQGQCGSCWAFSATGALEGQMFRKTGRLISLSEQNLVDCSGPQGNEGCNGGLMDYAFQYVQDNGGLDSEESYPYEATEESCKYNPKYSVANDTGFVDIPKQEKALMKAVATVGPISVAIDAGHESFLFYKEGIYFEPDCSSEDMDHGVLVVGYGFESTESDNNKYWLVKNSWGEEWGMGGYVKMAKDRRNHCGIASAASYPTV

Structure (SMILES)	IC50 (human cathepsin L) [nM]	IC50 (SARS-Cov-2 3CLpro) [nM]	IC50 (HRV3C) [nM]	EC50 [1] [nM]	EC50 [2] [nM]
CC(C)(C)[C@H](NC(=O)CC(F)(F)F)C(=O)N1C[C@H]2[C@@H]([C@H]1C(=O)N[C@H](C#N)C[C@@H]1OCCNC1=O)[C@H]1C=C[C@@H]2C1 [Compound 132]	≥ 10000	< 20	> 500	< 100	< 100
CC(C)(C)[C@H](NC(=O)C1(F)CCC1)C(=O)N1C[C@H]2[C@@H]([C@H]1C(=O)N[C@H](C#N)C[C@@H]1CCNC1=O)[C@H]1C=C[C@@H]2C1 [Compound 65, (1S,3aR,4S,7R,7aS)-N-((S)-1-cyano-2-((S)-2-oxopyrrolidin-3-yl)ethyl)-2-((S)-2-(1-fluorocyclobutane-1-carboxamido)-3,3-dimethylbutanoyl)-2,3,3a,4,7,7a-hexahydro-1H-4,7-methanoisoindole-1-carboxamide]	≥ 10000	< 20	> 10000	< 100	< 100
CC(C)(C)[C@H](NC(=O)C(F)(F)F)C(=O)N1C[C@H]2[C@@H]([C@H]1C(=O)N[C@H](C#N)C[C@@H]1CCNC1=O)[C@H]1C=C[C@@H]2C1(F)F [Example 82, (1S,3aS,4S,7R,7aR)—N-((S)-1-cyano-2-((S)-2-oxopyrrolidin-3-yl)ethyl)-2-((S)-3,3-dimethyl-2-(2,2,2-trifluoroacetamido)butanoyl)-8,8-difluoro-2,3,3a,4,7,7a-hexahydro-1H-4,7-methanoisoindole-1-carboxamide]	≥ 10000	< 20	> 10000	< 100	< 100
CC(C)(C)[C@H](NC(=O)C1(F)CC1)C(=O)N1C[C@@H]2[C@@H]3CC[C@@H](C3)[C@@H]2[C@H]1C(=O)N[C@H](C#N)C[C@@H]1CCNC1=O [Compound 64, (1S,2S,3S,6R,7R)—N-[(1S)-1-cyano-2-[(3S)-2-oxopyrrolidin-3-yl]ethyl]-4-[(2S)-2-[(1-fluorocyclopropyl)formamido]-3,3-dimethylbutanoyl]-4-azatricyclo[5.2.1.0^{2,6}]decane-3-carboxamide]	≥ 10000	< 20	> 10000	< 100	< 100
CC(C)(C)[C@H](NC(=O)C(F)(F)C(F)(F)F)C(=O)N1C[C@H]2[C@@H]([C@H]1C(=O)N[C@H](C#N)C[C@@H]1CCNC1=O)[C@H]1C=C[C@@H]2C1(F)F [Compound 129, (1R,2R,3S,6S,7S)—N-[(1S)-1-cyano-2-[(3S)-2-oxopyrrolidin-3-yl]ethyl]-4-[(2S)-3,3-dimethyl-2-(2,2,3,3,3-pentafluoropropanamido)butanoyl]-10,10-difluoro-4-azatricyclo[5.2.1.0^{2,6}]dec-8-ene-3-carboxamide]	≥ 10000	< 20	> 500	< 100	< 100
C[C@@H](OCC1CC1)[C@H](NC(=O)C(F)(F)F)C(=O)N1C[C@H]2[C@@H]([C@H]1C(=O)N[C@H](C#N)C[C@@H]1CCNC1=O)[C@H]1C=C[C@@H]2C1 [Example 99]	≥ 10000	< 20	> 500	< 100	< 100
CC(C)(C)[C@H](NC(=O)C(C)(C)C(F)(F)F)C(=O)N1C[C@H]2[C@@H]([C@H]1C(=O)N[C@H](C#N)C[C@@H]1CCNC1=O)[C@H]1C=C[C@@H]2C1 [Compound 75]	≥ 10000	< 20	> 10000	< 100	100 to 1000
CC(C)(C)[C@H](NC(=O)C(F)(F)Cl)C(=O)N1C[C@H]2[C@@H]([C@H]1C(=O)N[C@H](C#N)C[C@@H]1CCNC1=O)[C@H]1C=C[C@@H]2C1(F)F [Compound 128, (1R,2R,3S,6S,7S)-4-[(2S)-2-(2-chloro-2,2-difluoroacetamido)-3,3-dimethylbutanoyl]-N-[(1S)-1-cyano-2-[(3S)-2-oxopyrrolidin-3-yl]ethyl]-10,10-difluoro-4-azatricyclo[5.2.1.0^{2,6}]dec-8-ene-3-carboxamide]	≥ 10000	< 20	> 500	< 100	< 100
CC(C)(C)[C@H](NC(=O)C(F)(F)C(F)(F)F)C(=O)N1C[C@@H]2[C@H]3C[C@@H]([C@@H]2[C@H]1C(=O)N[C@H](C#N)C[C@@H]1OCCNC1=O)[C@H](F)C3 [Compound 118, (1S,2R,3S,6R,7S,9R)—N-[(1S)-1-cyano-2-[(2S)-3-oxomorpholin-2-yl]ethyl]-4-[(2S)-3,3-dimethyl-2-(2,2,3,3,3-pentafluoropropanamido)butanoyl]-9-fluoro-4-azatricyclo[5.2.1.0^{2,6}]decane-3-carboxamide]	–	< 20	> 500	< 100	< 100
CC(C)(C)[C@H](NC(=O)C(F)(F)F)C(=O)N1C[C@H]2[C@@H]([C@H]1C(=O)N[C@H](C#N)C[C@@H]1OCCCNC1=O)[C@H]1C=C[C@@H]2C1 [Compound 121, (1R,2S,3S,6R,7S)—N-[(1S)-1-cyano-2-[(2S)-3-oxo-1,4-oxazepan-2-yl]ethyl]-4-[(2S)-3,3-dimethyl-2-(2,2,2-trifluoroacetamido)butanoyl]-4-azatricyclo[5.2.1.0^{2,6}]dec-8-ene-3-carboxamide]	–	< 20	> 500	< 100	< 100
CC(C)(C)[C@H](NC(=O)C(F)(F)F)C(=O)N1C[C@H]2[C@@H]([C@H]1C(=O)N[C@H](C#N)C[C@@H]1OCC3(CC3)NC1=O)[C@H]1C=C[C@@H]2C1 [Compound 120]	–	< 20	> 500	< 100	< 100
C[C@H]1[C@H]2[C@@H]([C@@H](C(=O)N[C@H](C#N)C[C@@H]3CCNC3=O)N1C(=O)[C@@H](NC(=O)C(F)(F)F)C(C)(C)C)[C@H]1C=C[C@@H]2C1 [Example 93, (1R,2S,3S,5S,6R,7S)—N-[(1S)-1-cyano-2-[(3S)-2-oxopyrrolidin-3-yl]ethyl]-4-[(2S)-3,3-dimethyl-2-(2,2,2-trifluoroacetamido)butanoyl]-5-methyl-4-azatricyclo[5.2.1.0^{2,6}]dec-8-ene-3-carboxamide]	–	< 20	> 500	< 100	< 100
CC(C)(C)[C@H](NC(=O)C(F)(F)F)C(=O)N1C[C@H]2[C@@H]([C@H]1C(=O)N[C@H](C#N)C[C@@H]1CCNC1=O)[C@H]1C=C[C@@H]2C1=O [Example 89, (1R,2R,3S,6S,7S)—N-[(1S)-1-cyano-2-[(3S)-2-oxopyrrolidin-3-yl]ethyl]-4-[(2S)-3,3-dimethyl-2-(2,2,2-trifluoroacetamido)butanoyl]-10-oxo-4-azatricyclo[5.2.1.0^{2,6}]dec-8-ene-3-carboxamide]	–	< 20	> 10000	100 to 1000	100 to 1000
CC(C)(C)[C@H](NC(=O)C(F)(F)F)C(=O)N1C[C@H]2[C@@H]([C@H]1C(=O)N[C@H](C#N)C[C@@H]1Oc3ccncc3NC1=O)[C@H]1C=C[C@@H]2C1(F)F [Compound 111]	–	< 20	> 500	100 to 1000	< 100
CC(C)(C)[C@H](NC(=O)C(F)(F)F)C(=O)N1C[C@H]2[C@@H]([C@H]1C(=O)N[C@H](C#N)C[C@@H]1Oc3cccnc3NC1=O)[C@H]1C=C[C@@H]2C1 [Compound 112, (1S,3aR,4S,7R,7aS)-N-((S)-1-cyano-2-((S)-3-oxo-3,4-dihydro-2H-pyrido[3,2-b][1,4]oxazin-2-yl)ethyl)-2-((S)-3,3-dimethyl-2-(2,2,2-trifluoroacetamido)butanoyl)-2,3,3a,4,7,7a-hexahydro-1H-4,7-methanoisoindole-1-carboxamide]	–	< 20	> 500	< 100	100 to 1000
COC1(C(=O)N[C@H](C(=O)N2C[C@H]3[C@@H]([C@H]2C(=O)N[C@H](C#N)C[C@@H]2CCNC2=O)[C@H]2C=C[C@@H]3C2)C(C)(C)C)CCC1 [Compound 127]	–	20 to 200	> 500	< 100	100 to 1000
C[C@@H](OC(F)F)[C@H](NC(=O)C(F)(F)F)C(=O)N1C[C@H]2[C@@H]([C@H]1C(=O)N[C@H](C#N)C[C@@H]1CCNC1=O)[C@H]1C=C[C@@H]2C1 [Example 98, (1S,3aR,4S,7R,7aS)-N-((S)-1-cyano-2-((S)-2-oxopyrrolidin-3-yl)ethyl)-2-(O-(difluoromethyl)-N-(2,2,2-trifluoroacetyl)-L-threonyl)-2,3,3a,4,7,7a-hexahydro-1H-4,7-methanoisoindole-1-carboxamide]	–	< 20	> 500	< 100	< 100
CC(C)(C)[C@H](NC(=O)C(F)(F)F)C(=O)N1C[C@@H]2[C@@H]3C=C[C@@H]([C@H]4C[C@@H]34)[C@@H]2C1C(=O)N[C@H](C#N)C[C@@H]1CCNC1=O (stereo partly drawn) [Example 88, (3aR,4R,4aR,5aS,6S,6aS)-N-((S)-1-cyano-2-((S)-2-oxopyrrolidin-3-yl)ethyl)-2-((S)-3,3-dimethyl-2-(2,2,2-trifluoroacetamido)butanoyl)-1,2,3,3a,4,4a,5,5a,6,6a-decahydro-4,6-ethenocyclopropa[f]isoindole-1-carboxamide]	–	< 20	> 10000	100 to 1000	100 to 1000
